Experimental data taken from a melting point compilation (Tetko et al.; mined from patent text by program, amines drawn as free bases though some values may be those of a salt).

| melting point [°C] | SMILES |
| --- | --- |
| 70 to 72 | CCOC(=O)c1ccc(COc2cccc3occc23)cc1 |
| 157 | O=S(=O)(c1ccccc1)C(Cc1ccccc1)c1ccc(C(O)(C(F)(F)F)C(F)(F)F)cc1 (stereo unspecified) |
| 229 to 230 | C[C@@H]1CCC[C@H](C)N1Cc1ccc2cc(NC(=O)c3ccc(-c4ccc(Cl)cc4)nc3)ccc2c1 |
| 128 to 131 | COc1ccc2c(c1)CCC1C2CCC2(C)C(=O)CCC12 (stereo unspecified) |
| 98 to 100 | CCc1ccc(/C=C/c2cc(OC)c(OC)c(OC)c2)cc1 |
| 156 to 158 | Cc1cccc2sc(-n3nc(CCC(=O)N(C)O)cc3-c3ccc(Cl)cc3)nc12 |
| 152 to 154 | CC(C)NC(=O)c1ccc([N+](=O)[O-])cc1 |
| 112 to 113 | CCOC(=O)c1c(CC)nn(C)c1NC(=O)Cc1ccc(OC)cc1 |
| 98.5 to 99.5 | O=C(CCCCN1CCCCC1)c1ccc2c(c1)Cc1cc(C(=O)CCCCN3CCCCC3)ccc1S2 |
| 153 to 154 | O=C(CCCCCCc1ccccc1)c1c(O)c2cccnc2n(-c2ccccc2)c1=O |
| 138 to 140 | COC(=O)C(CO)Nc1ccccc1[N+](=O)[O-] (racemic) |
| 184 to 186 | Nc1cc(Br)nc(Br)c1 |
| 206 to 207 | Cc1ccc(CCC(N)CC(=O)O)cc1 (stereo unspecified) |
| 203 to 205 | Nc1ncnc2c1c(-c1ccc(Oc3ccccc3)cc1)nn2C1CCC(=O)CC1 |
| 273 to 274 | Cc1n[nH]c(-c2ccc(Br)cc2)c1NC(=O)c1ccccc1 |
| 122 to 125 | CC(C)c1ccc(-n2nnc(-c3ccc(OC(=O)C(C)(C)C)cc3)n2)cc1 |
| 192 to 195 | CC1CCCCC1NC(=O)C1=C(C(=O)Nc2cc(OC3CCCC3)c(Cl)cc2F)CCCC1 (stereo unspecified) |
| 160 to 161 | Nc1c(C(O)(C(F)(F)F)C(F)(F)F)ccc2cc(O)ccc12 |
| 178 to 183 | NC(=O)CCc1ccc(Oc2ccc3c(c2)S(=O)(=O)N=C2CCCN23)cc1 |
| 158 to 163 | CC1CCCC(C)N1Cc1ccc(NC(=O)C#Cc2ccc(-c3ccc(Cl)cc3)cc2)cc1 (stereo unspecified) |
| 81 to 82 | COC(=O)CCC(C#N)(CCC(=O)OC)c1ccc(OC)c(OC2CCCC2)c1 |
| 162 to 163 | CCc1noc(-c2cn(-c3ccccn3)cn2)n1 |
| 193 to 195 | CN(C)CNS(=O)(=O)c1ccc(-c2cnn(Cc3ccc(F)cc3F)c(=O)c2-c2ccc(F)cc2)cc1 |

| melting point [°C] | SMILES |
| --- | --- |
| 218 to 221 | Cc1nc(S(=O)(=O)N(C(=O)c2ccccc2)c2c(F)cccc2F)nn1-c1ncccn1 |
| 164 to 165 | COc1cc(OC)c(N2CCCC2)cc1/C=C/C(=O)c1ccc(S(=O)(=O)Nc2cc(C)on2)cc1 |
| 167 to 169 | CC(C)(C)c1cc(OCc2cccc(C(=O)O)c2)cc(C(C)(C)C)c1 |
| 123 to 124 | CN1CCC(O)(c2cccn2C)CC1 |
| 110 to 112 | COC(=O)C(CC(=S)c1ccc(C)cc1)C(C)=O (stereo unspecified) |
| 166 to 169 | CCOC(=O)C1(Cc2ccc(OC)c(OC)c2)C(=S)NCC1c1ccc(OC)c(OC)c1 (stereo unspecified) |
| 56 | CCOC(=O)C=Cc1ccc(Cl)c(Cl)c1 |
| 231 to 233 | Cc1cnc(C(=O)c2[nH]c3ccc(Cl)cc3c2CC(=O)O)s1 |
| 111 to 113 | CCOC(=O)c1c(N(C)CCO)c2ccc(C)nc2n(CC)c1=O |
| 192 to 194 | OCc1ccc(OCc2ccccc2)c2ncccc12 |
| 150 | CN(C)C(=O)Sc1ccc(C(=O)c2cccc(C#N)c2)cc1 |
| < 65 | CC(=O)OCC1OC(n2c(Br)nc3cc(Cl)c(Cl)cc32)C(OC(C)=O)C1OC(C)=O (stereo unspecified) |
| 145 to 146 | Cc1ccccc1-c1nc(-c2ccccc2)c[nH]1 |
| 190 to 191 | CCCCCCCCCC(=O)Nc1ccc(S(=O)(=O)Nc2nnc(CC(=O)O)s2)cc1 |
| 170 to 173 | O=C(O)CCCN(Cc1cccc(Cl)c1)Cc1cccc(Cl)c1 |
| 155 to 156 | COc1cc2ccccc2cc1NC(=O)Nc1cccc2ccccc12 |
| 208 | O=C(N[C@H]1CC[C@H](CCN2CCC(c3ccc(F)c4occc34)CC2)CC1)C1CCOCC1 |
| 164 to 165 | CC(C)c1cccc(-n2c(C(=O)Nc3ccc4c(ccn4C)c3)cc3cc(OC(F)(F)F)ccc32)c1 |
| 153 to 154 | O=C(O)CC(CC(=O)O)Sc1nc2ccccc2s1 |
| 196 to 198 | CC(C)(CS(C)(=O)=O)NC(=O)c1c(I)cccc1C(=O)Nc1ccc(S(F)(F)(F)(F)F)cc1Cl |
| 43 to 45 | CCc1ncc(CCCOc2c(C)cc(-c3noc(C)n3)cc2C)s1 |
| 177 to 179 | O=C1NN=C(c2ccccc2)c2c[nH]c3cccc1c23 |
| 209 to 212 | Cn1ccc(=O)c(O)c1Cc1cccnc1 |

| melting point [°C] | SMILES |
| --- | --- |
| 169 to 171 | c1nnc2c3c(c(NCCCN4CCCC4)nn12)CCCC3 |
| 72.5 to 73.5 | COc1cc(C(S)CS)cc(OC)c1OC (stereo unspecified) |
| 151 to 153 | Nc1cc(NC(=O)c2ccc(Cl)c(Cl)c2)ccc1F |
| 138 to 139 | Oc1cccc(C2CNC3(CCCCC3)O2)c1 (stereo unspecified) |
| 123 | COc1ccc(-c2nc(Sc3cccc(OC)c3)n(C3CCCCO3)c2-c2ccc(OC)cc2)cc1 (stereo unspecified) |
| 109 to 111 | Cc1ccc(C)c(COc2ccc(N)nn2)c1 |
| 172 | NS(=O)(=O)c1ccc(NC(=O)CNc2ccccc2)cc1C(F)(F)F |
| 225 to 226 | COC(=O)C1=C(C)NC(C)=C(P2(=O)OC(C)CC(C)O2)C1c1cccc([N+](=O)[O-])c1 (stereo unspecified) |
| 240 to 242 | O=c1c2ccccc2[nH]c2c1cnn2-c1ccccn1 |
| 54 to 57 | CCCOC(=O)c1cc(-c2ccc(Cl)cc2)cnc1C |
| 73 to 75 | NCCCc1ccc(SCCC(c2ccccc2)(c2ccccc2)c2ccccc2)cc1 |
| 86 | O=C(O)CCc1ccc(CCNC(=O)C2Cc3ccccc3N2S(=O)(=O)c2ccc(-c3cccc(C(F)(F)F)c3)cc2)cc1 (stereo unspecified) |
| 92 to 97 | CCn1ncc(C(=S)c2ccc3c(c2C)/C(=N/OC)CCS3)c1O |
| 227 to 228 | Nc1ncc(C(=O)NCc2ccc(C(F)(F)F)cc2)c(N2CCCC2)n1 |
| 177 to 178 | COC(=O)CSCC(=O)c1ccc2[nH]c(=O)[nH]c2c1 |
| 235 to 240 | CC(=O)Nc1ccc(CCC2CSC(=O)NN2)cc1 (stereo unspecified) |
| 174 to 175 | COc1ccc2c(C)c(CCOS(C)(=O)=O)c(=O)oc2c1 |
| 155 to 161 | COc1cccc(CNc2nccc(-c3cc(N4CCN(CCCN(C)C5CCCCC5)CC4)c4cc(OC)ccc4c3)n2)c1 |
| 169 to 173 | CC(C)(Cc1ccc(Br)cc1)C(C(=O)O)C(=O)O |
| 109 to 110 | CCC(NC(C)=O)c1ccc(CN2CCN(c3ccccc3)CC2)cc1 (stereo unspecified) |
| 80 | CC(C)(C#N)c1c(Cl)cc([N+](=O)[O-])cc1Cl |

| SMILES | melting point [°C] |
| --- | --- |
| CCC(C)(C)N=NC(C)(C#N)CCC(=O)O (stereo unspecified) | 60 to 62 |
| Brc1coc(-c2cn([C@H]3CN4CCC3CC4)nn2)c1 | 129 |
| Cc1c(C=O)c2cnnc(OCc3ccc(F)cc3)c2n1C[C@H]1C[C@@H]1C | 138 to 140 |
| COc1ccc(N(C(=O)CN2C(=O)C(COCc3ccccc3)C(=O)N(c3ccccc3)c3ccccc32)C(C)C)cc1 (stereo unspecified) | 203 to 204 |
